Patent publication US8628767B2, “Purine nucleoside phosphorylase as enzymatic activator of nucleoside prodrugs” (priority 2008, dated 2014)
Where a chain is given by its changes, count along the chain named. Names may count otherwise. Read-outs that look alike come from different tables or passages of the source.

What was measured:
[1] = tested on: T. vaginalis PNP; test: Substrate cleavage by wild-type Tv-PNP (HPLC); type: biochemical, Trichomonas vaginalis; conditions: for rate of enzymatic cleavage by T. vaginalis PNP: 100 micromolar substrate, HPLC separation of base from nucleoside; for activity of Tv-PNP as compared to wild-type E. coli PNP: summary of Table 1
Experimental: (§1) The method quantitatively measures the cleavage of substrates in vitro. The purine analog nucleosides (0.1 mM in 500 μl of 100 mM HEPES, pH 7.4, 50 mM potassium phosphate) are combined with 100 μg/ml Tv-PNP or wild-type E. coli PNP. The reaction mixtures are incubated at 25° C. for 1 hour, and the reactions stopped by boiling each sample for 2 minutes. Protein concentration and time of assay are varied depending on activity of enzyme for a particular substrate. Each sample is analyzed by reverse phase HPLC to measure conversion from substrate to product. The nucleoside and purine analogs are eluted from a Spherisorb ODSI (5 μm) column (Keystone Scientific, Inc., State College, Pa.) with a solvent containing 50 mM ammonium dihydrogen phosphate (95%) and acetonitrile (5%). Products are detected by absorbance at 254 nm, and are identified by comparing their retention times and absorption spectra with authentic control samples.
Numerous compounds are tested for efficiency as substrate for Tv-PNP in parallel comparison with E. coli PNP. The compounds include various analogs of adenosine, of inosine, of MeP-dR, and of fluoro- or chloro-substituted adenosine. The enzymes are incubated with 100 micromolar of each compound listed in the table and the rate of enzymatic cleavage is determined by HPLC separation of the base from the nucleoside. […] It is appreciated that the greater biological activity of the Tv-PNP enzyme allows for greater activity in impairing abnormal cell growth when the Tv-PNP is used for treatment of pathological conditions using F-araA as a prodrug substrate.

[2] = tested on: tumor expressing wild-type E. coli PNP enzyme; conditions: cited from earlier work
[3] = tested on: T. vaginalis PNP; conditions: Wang et al.; cited from earlier work
[4] = target: E. coli PNP (Escherichia coli, UniProt P0ABP8); test: Substrate cleavage by wild-type E. coli PNP (HPLC); type: biochemical; conditions: 100 micromolar substrate, HPLC separation of base from nucleoside
Sequence of E. coli PNP (P0ABP8 whole entry): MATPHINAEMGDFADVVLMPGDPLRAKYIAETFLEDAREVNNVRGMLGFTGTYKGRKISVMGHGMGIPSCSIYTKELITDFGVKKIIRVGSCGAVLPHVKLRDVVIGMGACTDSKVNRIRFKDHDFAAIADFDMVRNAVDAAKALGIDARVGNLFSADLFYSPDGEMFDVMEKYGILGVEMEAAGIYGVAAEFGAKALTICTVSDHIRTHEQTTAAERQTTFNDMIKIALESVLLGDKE
Experimental: as §1
Numerous compounds are tested for efficiency as substrate for Tv-PNP in parallel comparison with E. coli PNP. […] The enzymes are incubated with 100 micromolar of each compound listed in the table and the rate of enzymatic cleavage is determined by HPLC separation of the base from the nucleoside.

[5] = Tolerated dose of MeP-dR in mice; type: in vivo
Excerpt: The formula of Freidenreich et al., Cancer Chemother. Rep., 50:219-244, (1966) is optionally used to determine the maximum tolerated dose of substrate for a human subject. […] This amount or slightly less is expected to maximize tumor cell killing in humans without killing the subject thereby generating a favorable efficacy to safety profile. This standard of effectiveness is accepted in the field of cancer therapy. More preferably, a drug levels administered range from about 10% to 1% of the maximum tolerated dosage (for example, 7.5 mg/m^2-0.75 mg/m^2). It is understood that modes of administration that permit the substrate to remain localized at or near the site of the tumor will be effective at lower doses than systemically administered substrates.

[6] = Cleavage of MeP-dR by PNPs of various origins (HPLC); type: biochemical; conditions: 100 μM MeP-dR, enzymes of various purities
[7] = Cleavage of F-araA by PNPs of various origins (HPLC); type: biochemical; conditions: for F-araA rate of cleavage: 100 μM F-araA, enzymes of various purities
[8] = tested on: tumors; test: In vivo efficacy experiments, tm-PNP versus M65V
[9] = equimolar quantities of substrate

With Nc1nc(F)nc2c1ncn2[C@@H]1O[C@H](CO)[C@@H](O)[C@@H]1O [9-(β-D-arabinofuranosyl)-2-fluoroadenine, reference compound] the “rate of enzymatic cleavage by T. vaginalis PNP” value (“rate … by T. vaginalis PNP” for short) [1] was 32,000 nanomoles per milligrams per hour, the “cleavage rate by Tv-PNP relative to E. coli PNP” value ([1]; Tv-PNP rate / E. coli PNP rate) was “approximately 23 times” and the “catalytic efficiency of Tv-PNP relative to E. coli PNP” value ([1]; Vmax/Km ratio) was 25 fold. The “activity of Tv-PNP as compared to wild-type E. coli PNP” value [1] was “more activity”, the tumor response [2] was “complete responses” and the “activity of Tv-PNP towards substrate, conventional understanding” value [3] was “does not have appreciable activity”. For the same molecule, the “rate of enzymatic cleavage by E. coli PNP” value (“rate … by E. coli PNP” for short) [4] was 1,250 nanomoles per milligrams per hour.

With Nc1nc(F)nc2c1ncn2[C@H]1C[C@H](O)[C@@H](CO)O1 [2-F-2′-deoxyadenosine (F-dAdo), 2-fluoro-2′-deoxyadenosine] the “rate … by T. vaginalis PNP” value [1] was 400,000 nanomoles per milligrams per hour and the “rate … by E. coli PNP” value [4] was 435,000 nanomoles per milligrams per hour.

In the case of O=c1[nH]cnc2c1ncn2[C@@H]1O[C@H](CO)[C@@H](O)[C@@H]1O [9-β-D-arabinofuranosyl-hypoxanthine], the “rate … by T. vaginalis PNP” value [1] is reported as 48 nanomoles per milligrams per hour and the “rate … by E. coli PNP” value [4] is reported as 61 nanomoles per milligrams per hour.

In the case of Nc1nc2c(ncn2[C@@H]2O[C@H](CO)[C@@H](O)[C@@H]2O)c(=O)[nH]1 [9-β-D-arabinofuranosyl-guanine], the “rate … by T. vaginalis PNP” value [1] is reported as 16 nanomoles per milligrams per hour and the “rate … by E. coli PNP” value [4] is reported as 310 nanomoles per milligrams per hour.

With Cc1ncnc2c1ncn2[C@@H]1O[C@H]([C@H](C)O)[C@@H](O)[C@H]1O [9-[5-methyl-(talo)-β-D-ribofuranosyl]-6-methylpurine] the “rate … by T. vaginalis PNP” value [1] was 8,400 nanomoles per milligrams per hour, the “activity of Tv-PNP as compared to wild-type E. coli PNP” value [1] was “more activity” and the “rate … by E. coli PNP” value [4] was 915 nanomoles per milligrams per hour.

In the case of OC[C@H]1O[C@@H](n2cnc3c(O)ncnc32)[C@H](O)[C@@H]1O [Inosine, reference compound], the “rate … by T. vaginalis PNP” value [1] is reported as 154,000 nanomoles per milligrams per hour and the “rate … by E. coli PNP” value [4] is reported as 342,000 nanomoles per milligrams per hour.

For OC[C@H]1O[C@@H](n2cnc3c(O)ncnc32)C[C@@H]1O [2′-deoxyinosine, reference compound], the “rate … by T. vaginalis PNP” value [1] was 660,000 nanomoles per milligrams per hour and the “rate … by E. coli PNP” value [4] was 733,000 nanomoles per milligrams per hour.

In the case of Cc1ncnc2c1ncn2[C@H]1C[C@H](O)[C@@H](CO)O1 [9-(2-deoxy-β-D-ribofuranosyl]-6-methylpurine], the “rate … by T. vaginalis PNP” value [1] is reported as 484,000 nanomoles per milligrams per hour, the toxicity ([5]; mice, systemic, 25 mg per kg per day for 9 days (9 doses total)) is reported as “some toxicity but no lethality” and the “human dosage (maximum tolerated dose) by formula of Freidenreich et al.” value ([5]; mouse, in vivo, 25 mg/kg) is reported as 75 mg/m^2. The “rate … by E. coli PNP” value [4] was 528,000 nanomoles per milligrams per hour.

For CO[C@@H]1[C@H](O)[C@@H](CO)O[C@H]1n1cnc2c(N)ncnc21 [2′-O^methyl-adenosine], the “rate … by T. vaginalis PNP” value [1] was <10 nanomoles per milligrams per hour and the “rate … by E. coli PNP” value [4] was <1 nanomoles per milligrams per hour.

B1: Salmonella typhimurium PNP: purine nucleoside phosphorylase of Salmonella typhimurium (protein, UniProt Q8ZJV7 1-239, looked up)
Purine nucleoside …: MATPHINAEMGDFADVVLMPGDPLRAKHIAETFLENVREVNNVRGMLGFTGTYKGRKISVMGHGMGIPSCSIYTKELITDFGVKKIIRVGSCGAVRMDVKLRDVVIGMGACTDSKVNRIRFKDHDFAAIADFDMVRNAVDAAKALGVDARVGNLFSADLFYSPDGEMFDVMEKYGVLGVEMEAAGIYGVAAEFGAKALTICTVSDHIRTHEQTTAAERQTTFNDMIKIALESVLLGDKE
In the case of B1, the “MeP-dR rate of cleavage” value [6] is reported as 9,150 nmoles/mg/hr, the “F-araA rate of cleavage” value [7] is reported as 20 nmol/mg/h and the MeP-dR/F-araA cleavage ratio [7, 9] is reported as 458.

B2: human PNP: human purine nucleoside phosphorylase (protein, UniProt P00491 1-289, looked up)
Purine nucleoside …: MENGYTYEDYKNTAEWLLSHTKHRPQVAIICGSGLGGLTDKLTQAQIFDYGEIPNFPRSTVPGHAGRLVFGFLNGRACVMMQGRFHMYEGYPLWKVTFPVRVFHLLGVDTLVVTNAAGGLNPKFEVGDIMLIRDHINLPGFSGQNPLRGPNDERFGDRFPAMSDAYDRTMRQRALSTWKQMGEQRELQEGTYVMVAGPSFETVAECRVLQKLGADAVGMSTVPEVIVARHCGLRVFGFSLITNKVIMDYESLEKANHEEVLAAGKQAAQKLEQFVSILMASIPLPDKAS
For B2, the “MeP-dR rate of cleavage” value [6] was 35 nmol/mg/h, the “F-araA rate of cleavage” value [7] was less than 1 nmol/mg/h and the MeP-dR/F-araA cleavage ratio [7, 9] was greater than 35.

B3: tm-PNP: tailed mutant E. coli PNP, 30 amino acid tail in place of the terminal glutamic acid (SEQ ID NO: 8) (protein, listed as Trichomonas vaginalis)
chain: MATPHINAEMGDFADVVLMPGDPLRAKYIAETFLEDAREVNNVRGMLGFTGTYKGRKISVMGHGMGIPSCSIYTKELITDFGVKKIIRVGSCGAVLPHVKLRDVVIGMGACTDSKVNRIRFKDHDFAAIADFDMVRNAVDAAKALGIDARVGNLFSADLFYSPDGEMFDVMEKYGILGVEMEAAGIYGVAAEFGAKALTICTVSDHIRTHEQTTAAERQTTFNDMIKIALESVLLGDKGKRPRGSSRVDLQACKLGIFVKEPYFCGVT
With B3 the “MeP-dR rate of cleavage” value [6] was 948 nmol/mg/h, the “antitumoral activity relative to M65V” value [8] was “considerably greater antitumoral activity” and the MeP-dR/F-araA cleavage ratio [7] was 198. For the same molecule, the “F-araA rate of cleavage” value [7] was 4.8 nmol/mg/h and the “selectivity of cleavage of F-araA relative to wild-type E. coli PNP” value ([7]; from MeP-dR/F-araA ratios 198 vs 422) was 2.3 fold.

B4: E. coli PNP: wild-type E. coli purine nucleoside phosphorylase (protein, UniProt P0ABP8 2-239, looked up)
Purine nucleoside …: ATPHINAEMGDFADVVLMPGDPLRAKYIAETFLEDAREVNNVRGMLGFTGTYKGRKISVMGHGMGIPSCSIYTKELITDFGVKKIIRVGSCGAVLPHVKLRDVVIGMGACTDSKVNRIRFKDHDFAAIADFDMVRNAVDAAKALGIDARVGNLFSADLFYSPDGEMFDVMEKYGILGVEMEAAGIYGVAAEFGAKALTICTVSDHIRTHEQTTAAERQTTFNDMIKIALESVLLGDKE
With B4 the “MeP-dR rate of cleavage” value [6] was 528,000 nmoles/mg/hr, the MeP-dR/F-araA cleavage ratio [7] was 422 and the “F-araA rate of cleavage” value [7] was 1,250 nmoles/mg/hr.

B5: E. Coli PNP mutant M65V (protein, UniProt P0ABP8 2-239, looked up, variant M65V)
Purine nucleoside …: B4 Purine nucleoside … with M64V
With B5 the “MeP-dR rate of cleavage” value [6] was 1823 nmol/mg/h, the MeP-dR/F-araA cleavage ratio [7] was 469±52 and the “F-araA rate of cleavage” value [7] was 3.9 nmol/mg/h. For the same molecule, the MeP-dR/F-araA cleavage ratio [7, 9] was 469 and the MeP-dR/F-araA cleavage ratio ([7]; purified enzyme) was 593.

B6: T. vaginalis PNP: wild-type Trichomonas vaginalis purine nucleoside phosphorylase, amino acid sequence SEQ ID NO: 5 (protein, listed as Trichomonas vaginalis)
chain: MATPHNSAQVGDFAETVLMCGDPLRAKLIAETYLENPKLVNNVRGIQGYTGTYKGKPISVMGHGMGLPSICIYAEELYSTYKVKTIIRVGTCGAIDMDIHTRDIVIFTSAGTNSKINRIRFMDHDYPATASFDVVCALVDAAKELNIPAKVGKGFSTDLFYNPQTELAQLMNKFHFLAVEMESAGLFPIADLYGARAGCICTVSDHILHHEETTAEERQNSFQNMMKIALEAAIKL
With B6 the “MeP-dR rate of cleavage” value [6] was 536,000 nmoles/mg/hr, the “F-araA rate of cleavage” value [7] was 30,000 nmoles/mg/hr and the MeP-dR/F-araA cleavage ratio [7, 9] was 18.
